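Interpolation was linear, between the two tested concentrations surrounding the appropriate level; five concentrations were tested over 48 hours in 96-well plates. At the GI50, growth is halved.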 Activity calls are given as the source filed them. Cut-off read from the data, not from the text of the source: active = GI50 up to about 1.1 µM and inactive = higher.
Experiments:
Test in all cases: inhibition of tumour cell growth, NCI panel, 48 h
A498 = system: A498
A549 = system: A549
ACHN = system: ACHN
BT-549 = system: BT-549
CAKI-1 = system: CAKI-1
CCRF-CEM = system: CCRF-CEM
COLO 205 = system: COLO 205
DU-145 = system: DU-145
EKVX = system: EKVX
HCC 2998 = system: HCC 2998
HCT-116 = system: HCT-116
HCT-15 = system: HCT-15
HL-60 = system: HL-60
HOP-62 = system: HOP-62
HOP-92 = system: HOP-92
HT-29 = system: HT-29
Hs-578T = system: Hs-578T
IGROV-1 = system: IGROV-1
K562 = system: K562
KM12 = system: KM12
LOX IMVI = system: LOX IMVI
M14 = system: M14
MCF7 = system: MCF7
MDA-MB-231 = system: MDA-MB-231
MDA-MB-435 = system: MDA-MB-435
MDA-N = system: MDA-N
MOLT-4 = system: MOLT-4
Malme-3M = system: Malme-3M
NCI-H23 = system: NCI-H23
NCI-H460 = system: NCI-H460
NCI-H522 = system: NCI-H522
NCI/ADR-RES = system: NCI/ADR-RES
OVCAR-3 = system: OVCAR-3
OVCAR-4 = system: OVCAR-4
OVCAR-5 = system: OVCAR-5
OVCAR-8 = system: OVCAR-8
PC-3 = system: PC-3
RPMI-8226 = system: RPMI-8226
RXF 393 = system: RXF 393
SF-268 = system: SF-268
SF-295 = system: SF-295
SF-539 = system: SF-539
SK-MEL-28 = system: SK-MEL-28
SK-MEL-2 = system: SK-MEL-2
SK-MEL-5 = system: SK-MEL-5
SK-OV-3 = system: SK-OV-3
SN12C = system: SN12C
SNB-19 = system: SNB-19
SNB-75 = system: SNB-75
SW-620 = system: SW-620
T47D = system: T47D
TK-10 = system: TK-10
U-251 = system: U-251
UACC-257 = system: UACC-257
UACC-62 = system: UACC-62
UO-31 = system: UO-31
786-0 = system: 786-0
NCI-H226 = system: NCI-H226
SR = system: SR

O=Nn1c2ccccc2c2cc([N+](=O)[O-])ccc21
GI50 (A498): 12.4 µM (inactive)
GI50 (A549): 19.9 µM (inactive)
GI50 (ACHN): 14.1 µM (inactive)
GI50 (BT-549): 17.2 µM (inactive)
GI50 (CAKI-1): 16.4 µM (inactive)
GI50 (CCRF-CEM): 14.3 µM (inactive)
GI50 (COLO 205): 34.3 µM (inactive)
GI50 (DU-145): 14.3 µM (inactive)
GI50 (EKVX): 11.2 µM (inactive)
GI50 (HCC 2998): 33 µM (inactive)
GI50 (HCT-116): 13.9 µM (inactive)
GI50 (HCT-15): 22.3 µM
GI50 (HL-60): > 100 µM (inactive)
GI50 (HOP-62): 12.3 µM (inactive)
GI50 (HOP-92): 14.3 µM (inactive)
GI50 (HT-29): 18 µM (inactive)
GI50 (Hs-578T): 31.7 µM (inactive)
GI50 (IGROV-1): 15.7 µM (inactive)
GI50 (K562): 11.1 µM (inactive)
GI50 (KM12): 17.5 µM (inactive)
GI50 (LOX IMVI): 14.7 µM (inactive)
GI50 (M14): 20 µM (inactive)
GI50 (MCF7): 22.9 µM (inactive)
GI50 (MDA-MB-231): 18.9 µM (inactive)
GI50 (MDA-MB-435): 17.1 µM (inactive)
GI50 (MDA-N): 17.2 µM (inactive)
GI50 (MOLT-4): 14.1 µM (inactive)
GI50 (Malme-3M): 12.9 µM (inactive)
GI50 (NCI-H23): 17.3 µM (inactive)
GI50 (NCI-H460): 18 µM (inactive)
GI50 (NCI-H522): 10.9 µM (inactive)
GI50 (NCI/ADR-RES): 20.2 µM (inactive)
GI50 (OVCAR-3): 17.9 µM (inactive)
GI50 (OVCAR-4): 16.8 µM (inactive)
GI50 (OVCAR-5): 16.5 µM (inactive)
GI50 (OVCAR-8): 14.6 µM (inactive)
GI50 (PC-3): 18.4 µM (inactive)
GI50 (RPMI-8226): 13.3 µM (inactive)
GI50 (RXF 393): 16.4 µM (inactive)
GI50 (SF-268): 12.7 µM (inactive)
GI50 (SF-295): 15.2 µM (inactive)
GI50 (SF-539): 20.3 µM (inactive)
GI50 (SK-MEL-28): 18.5 µM (inactive)
GI50 (SK-MEL-2): 36.3 µM (inactive)
GI50 (SK-MEL-5): 30.5 µM (inactive)
GI50 (SK-OV-3): 16.1 µM (inactive)
GI50 (SN12C): 16.8 µM (inactive)
GI50 (SNB-19): 20.7 µM (inactive)
GI50 (SNB-75): 7.23 µM (inactive)
GI50 (SW-620): 13.7 µM (inactive)
GI50 (T47D): 31.1 µM (inactive)
GI50 (TK-10): 15.4 µM (inactive)
GI50 (U-251): 16.4 µM (inactive)
GI50 (UACC-257): 22.9 µM (inactive)
GI50 (UACC-62): 16 µM (inactive)
GI50 (UO-31): 22.4 µM (inactive)

COc1ccc2c(c1)/C(=C\c1c(C)nc3sc(C)cn13)C(=O)N2
GI50 (786-0): 2.32 µM (inactive)
GI50 (A498): 0.531 µM (active)
GI50 (A549): 1.36 µM (inactive)
GI50 (ACHN): 3.83 µM (inactive)
GI50 (BT-549): 1.66 µM (inactive)
GI50 (CAKI-1): 2.13 µM (inactive)
GI50 (CCRF-CEM): 0.455 µM (active)
GI50 (COLO 205): 0.14 µM (active)
GI50 (DU-145): 4.83 µM (inactive)
GI50 (EKVX): 3.24 µM (inactive)
GI50 (HCC 2998): 0.337 µM (active)
GI50 (HCT-116): 0.498 µM (active)
GI50 (HCT-15): 0.49 µM
GI50 (HL-60): 0.292 µM (active)
GI50 (HOP-62): 1.53 µM (inactive)
GI50 (HT-29): 0.363 µM (active)
GI50 (Hs-578T): 1.22 µM (inactive)
GI50 (IGROV-1): 0.755 µM (active)
GI50 (K562): 0.446 µM (active)
GI50 (KM12): 0.327 µM (active)
GI50 (LOX IMVI): 1.87 µM (inactive)
GI50 (M14): 0.75 µM (active)
GI50 (MCF7): 0.332 µM (active)
GI50 (MDA-MB-231): 0.855 µM (active)
GI50 (MDA-MB-435): 0.106 µM (active)
GI50 (MDA-N): 0.124 µM (active)
GI50 (MOLT-4): 0.778 µM (active)
GI50 (Malme-3M): 0.172 µM (active)
GI50 (NCI-H226): 0.841 µM (active)
GI50 (NCI-H23): 2.31 µM (inactive)
GI50 (NCI-H460): 0.205 µM (active)
GI50 (NCI-H522): 0.175 µM (active)
GI50 (NCI/ADR-RES): 1.36 µM (inactive)
GI50 (OVCAR-3): 0.297 µM (active)
GI50 (OVCAR-4): 12.7 µM (inactive)
GI50 (OVCAR-5): 3.24 µM (inactive)
GI50 (OVCAR-8): 2.94 µM (inactive)
GI50 (PC-3): 0.385 µM (active)
GI50 (RPMI-8226): 0.581 µM (active)
GI50 (RXF 393): 1.64 µM (inactive)
GI50 (SF-268): 2.35 µM (inactive)
GI50 (SF-295): 0.309 µM (active)
GI50 (SF-539): 0.204 µM (active)
GI50 (SK-MEL-28): 54.6 µM (inactive)
GI50 (SK-MEL-2): 0.263 µM (active)
GI50 (SK-MEL-5): 0.206 µM (active)
GI50 (SK-OV-3): 1.64 µM (inactive)
GI50 (SN12C): 8.49 µM (inactive)
GI50 (SNB-19): 3.33 µM (inactive)
GI50 (SR): 0.409 µM (active)
GI50 (SW-620): 0.687 µM (active)
GI50 (T47D): 9.89 µM (inactive)
GI50 (TK-10): 3.18 µM (inactive)
GI50 (U-251): 0.217 µM (active)
GI50 (UACC-257): 1.41 µM (inactive)
GI50 (UACC-62): 0.274 µM (active)
GI50 (UO-31): 3.92 µM (inactive)
